PubChem BioAssay (NCI)
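A five-concentration, 48-hour dose response in 96-well plates underlies each endpoint, interpolated linearly between surrounding concentrations. Here, GI50 denotes the concentration required for 50% inhibition of growth. TGI: concentration producing complete growth inhibition.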

How the values were obtained:
Assay in all cases: growth of human tumour cells (NCI), 48 h
NCI-H23 lung = tested on: NCI-H23 lung
OVCAR-8 ovarian = tested on: OVCAR-8 ovarian
UACC-257 melanoma = tested on: UACC-257 melanoma
MCF7 breast = tested on: MCF7 breast
COLO 205 colon = tested on: COLO 205 colon
MOLT-4 leukemia = tested on: MOLT-4 leukemia
HCC-2998 colon = tested on: HCC-2998 colon
KM12 colon = tested on: KM12 colon
NCI-H226 lung = tested on: NCI-H226 lung
SF-539 CNS = tested on: SF-539 CNS

Row | Structure (SMILES) | GI50 (NCI-H23 lung) | TGI (NCI-H23 lung) | GI50 (OVCAR-8 ovarian) | TGI (OVCAR-8 ovarian) | GI50 (UACC-257 melanoma) | TGI (UACC-257 melanoma) | GI50 (MCF7 breast) | TGI (MCF7 breast) | GI50 (COLO 205 colon) | TGI (COLO 205 colon) | GI50 (MOLT-4 leukemia) | TGI (MOLT-4 leukemia) | GI50 (HCC-2998 colon) | TGI (HCC-2998 colon) | GI50 (KM12 colon) | TGI (KM12 colon) | GI50 (NCI-H226 lung) | TGI (NCI-H226 lung) | GI50 (SF-539 CNS) | TGI (SF-539 CNS)
1 | CCOC(=O)C#Cc1c(C(=O)OCC)nnn1[C@@H]1O[C@H](CO)[C@H]2OC3(CCCCC3)O[C@H]21 | 10.1 µM | 28.4 µM | 3.81 µM | 13.2 µM | 2.93 µM | 7.52 µM | 2.11 µM | 6.56 µM | 1.98 µM | 4.06 µM | 1.95 µM | 5.42 µM | 18 µM | 32.8 µM | 12.2 µM | 27 µM | 1.72 µM | 3.17 µM | – | –
2 | CCC[CH2][Sn]([CH2]CCC)([CH2]CCC)[O]C(=O)C(OC)c1ccccc1 (stereo unspecified) | 0.0499 µM | 0.179 µM | 0.141 µM | 0.272 µM | 0.0969 µM | 0.217 µM | – | – | 0.134 µM | 0.264 µM | – | 0.835 µM | 0.0381 µM | 0.144 µM | 0.052 µM | 0.178 µM | 0.104 µM | 0.252 µM | 0.134 µM | 0.268 µM
3 | COC(=O)N/N=C(\C)C(CN(C)C)C(c1ccccc1)c1c(O)c2ccccc2oc1=O (stereo unspecified) | – | > 100 µM | – | > 100 µM | – | > 100 µM | – | – | – | > 100 µM | – | > 100 µM | – | > 100 µM | – | > 100 µM | – | > 100 µM | – | > 100 µM
4 | CC(C)C(=S)N(C)O | – | > 100 µM | – | > 100 µM | – | > 100 µM | – | – | – | > 100 µM | – | > 24.7 µM | – | > 100 µM | – | > 72.9 µM | – | > 100 µM | – | 89.7 µM
5 | CC(=O)OC1C(O[C@H]2CC[C@]34O[C@]35CC[C@]3(C)C(C6(C)CC[C@@H](C(C)(C)O)O6)[C@@H](O)CC3(C)[C@@H]5CC(OC3OC(CO)C(O)C(O)C3O)C4C2(C)C)OCC(O)C1O (stereo partly specified) | – | > 100 µM | – | > 100 µM | – | > 100 µM | – | – | – | > 73.8 µM | – | > 100 µM | – | > 100 µM | – | > 100 µM | – | > 100 µM | – | > 56.6 µM
6 | Cc1nc(Sc2nc3ccc([N+](=O)[O-])cc3s2)sc1C | 1.03 µM | 4.44 µM | 1.79 µM | 7.12 µM | 4.62 µM | 16.4 µM | 0.705 µM | 10.1 µM | 1.93 µM | 6.07 µM | 0.288 µM | 3.45 µM | 12.5 µM | 25.2 µM | 3.89 µM | 14.6 µM | 1.07 µM | 2.84 µM | – | –
7 | CCOc1ccc(C(C)=O)cc1NC(=O)c1cccc(-c2nnn(CC)n2)c1 | 0.646 µM | 19 µM | 1.29 µM | > 100 µM | – | – | 0.333 µM | > 100 µM | 0.395 µM | 1.93 µM | 0.682 µM | > 100 µM | 1.71 µM | > 100 µM | – | – | 11.2 µM | > 100 µM | 0.346 µM | 3.54 µM
8 | Cc1ccc(O)c(NC2=C(Cl)C(=O)N(Cc3ccccc3)C2=O)c1 | 25.8 µM | 68.6 µM | 18.3 µM | 39.3 µM | – | – | 16.2 µM | 48.8 µM | 28.4 µM | > 100 µM | 1.55 µM | 74.2 µM | – | – | 40.7 µM | > 100 µM | 15 µM | 37.3 µM | – | –
9 | C/C(CC(=O)Nc1ccc(NC(=O)C/C(C)=N\NC(N)=O)cc1)=N/NC(N)=O | – | > 100 µM | – | > 100 µM | – | > 100 µM | – | – | – | > 79.7 µM | – | 97.8 µM | – | > 100 µM | – | > 100 µM | – | > 100 µM | – | > 100 µM
10 | CCN(CC)c1ccc2nc3ccc(N=Nc4ccc(O)cc4)cc3[n+](-c3ccccc3)c2c1 | 3.75 µM | 40.3 µM | 7.42 µM | > 100 µM | 3.11 µM | 9.78 µM | 1.9 µM | 5.11 µM | 1.26 µM | 3.1 µM | – | – | 4.51 µM | 16.4 µM | 3.7 µM | 16.4 µM | 11.4 µM | 23.6 µM | 13.3 µM | 91.2 µM
11 | CCN(CC)c1nc(NC2CCCCC2)c2nc(N(CC)CC)nc(NC3CCCCC3)c2n1 | – | > 100 µM | – | > 100 µM | – | – | – | > 100 µM | – | – | – | > 100 µM | – | > 100 µM | – | > 100 µM | – | > 100 µM | – | > 100 µM
12 | CCC(C)(O)c1cn(-c2ccc(S(=O)(=O)O)cc2)nn1 (stereo unspecified) | – | > 100 µM | – | > 100 µM | – | > 100 µM | – | – | – | > 100 µM | – | > 100 µM | – | > 100 µM | – | > 100 µM | – | > 100 µM | – | > 100 µM
13 | CC(C)(C)c1nc(-c2cccc(NS(=O)(=O)c3c(F)cccc3F)c2F)c(-c2ccnc(N)n2)s1 | 10.3 µM | 98.6 µM | 49.1 µM | > 100 µM | – | – | 27.3 µM | > 100 µM | < 0.01 µM | > 100 µM | 26.5 µM | > 100 µM | 24.1 µM | 86.7 µM | 23.8 µM | > 92.4 µM | 32.9 µM | > 100 µM | 39.2 µM | > 100 µM
14 | COc1cc(CN(c2ccc(C)cc2)C2OC(=O)c3ccccc32)cc(OC)c1OC (stereo unspecified) | 0.427 µM | – | – | – | 3.41 µM | > 100 µM | 0.339 µM | > 100 µM | 0.351 µM | 1.3 µM | 0.908 µM | > 100 µM | 0.877 µM | > 31.2 µM | 0.445 µM | > 100 µM | 0.507 µM | > 19.7 µM | 0.393 µM | > 100 µM
15 | O=C(O)Cn1ccc2ccccc21 | > 100 µM | > 100 µM | > 100 µM | > 100 µM | > 100 µM | > 100 µM | > 100 µM | > 100 µM | > 100 µM | > 100 µM | – | – | > 100 µM | > 100 µM | > 100 µM | > 100 µM | > 100 µM | > 100 µM | > 100 µM | > 100 µM
16 | COc1cccc2nc3c(C(=O)NCCN(C)C)cccc3nc12 | – | 27.2 µM | – | > 88 µM | – | 27.1 µM | – | – | – | 28.8 µM | – | 15.1 µM | – | 36.3 µM | – | 36.9 µM | – | 20.2 µM | – | 17.1 µM
